pEC50, pIC50: −log10 of the molar value.
How the values were obtained:
human DGKα = molecular target: T1, human DGKα (Homo sapiens, UniProt P23743); assay: DGKα Biochemical Activity Assay (ADP-Glo);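 also: recombinant enzyme converting diacylglycerol in lipid micelles with ATP, ADP formed detected by luminescence, IC50 from a four-parameter nonlinear fit, geometric mean across experiments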
T1 construct: purchased Carna Biosciences'; inferred from the same paragraph's 'obtained from Carna Biosciences')

[1] = test system: Jurkat NFκB-luciferase cells; assay: Jurkat NFκB-Luciferase Assay; type: cell-based; conditions: Homo sapiens; Jurkat NFκB-luciferase cells activated with anti-CD3 antibody (OKT3), 2.5 hrs at 37° C., One-Glo Ex; geometric mean; read-out: DGK NFKb Luciferase EC50;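 also: bioluminescence read-out normalized to DMSO basal activation and to maximum enhancement at 1 µM compound, rising signal indicating stronger T-cell activation through DGKα inhibition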

T1 sequence (P23743 whole entry): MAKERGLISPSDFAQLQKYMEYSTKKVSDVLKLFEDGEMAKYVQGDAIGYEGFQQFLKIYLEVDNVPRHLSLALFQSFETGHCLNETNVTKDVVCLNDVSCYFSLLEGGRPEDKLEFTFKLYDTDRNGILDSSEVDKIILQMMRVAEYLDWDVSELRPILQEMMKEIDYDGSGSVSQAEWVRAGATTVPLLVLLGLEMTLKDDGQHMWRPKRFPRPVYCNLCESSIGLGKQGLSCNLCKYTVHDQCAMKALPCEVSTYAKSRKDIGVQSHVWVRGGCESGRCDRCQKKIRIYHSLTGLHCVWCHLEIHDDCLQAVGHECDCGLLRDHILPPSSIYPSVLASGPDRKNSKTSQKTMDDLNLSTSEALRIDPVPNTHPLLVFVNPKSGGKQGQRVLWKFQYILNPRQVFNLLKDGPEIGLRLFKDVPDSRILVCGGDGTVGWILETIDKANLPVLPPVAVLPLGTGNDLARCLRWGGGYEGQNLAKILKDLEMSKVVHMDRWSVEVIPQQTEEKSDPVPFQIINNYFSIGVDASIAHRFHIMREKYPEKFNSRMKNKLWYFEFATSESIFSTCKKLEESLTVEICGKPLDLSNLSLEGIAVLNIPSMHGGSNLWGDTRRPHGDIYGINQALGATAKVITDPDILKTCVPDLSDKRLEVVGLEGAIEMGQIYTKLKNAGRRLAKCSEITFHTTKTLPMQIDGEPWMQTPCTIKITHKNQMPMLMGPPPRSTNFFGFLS

Row | SMILES | pIC50 (human DGKα) | pEC50 [1]
1 | O=c1nc(N(CC(F)F)c2cc(F)cc(-c3cnc(C4CC4)cn3)c2)c2c(F)cccc2[nH]1 [Example 17, 4-[3-(5-cyclopropylpyrazin-2-yl)-N-(2,2-difluoroethyl)-5-fluoro-anilino]-5-fluoro-1H-quinazolin-2-one] | 7.52 | 8.91
2 | CC1(C#Cc2cccc3c2COCCN3c2nc(=O)[nH]c3c(F)ccc(F)c23)CC1 [Example 145] | 7.89 | 8.50
3 | O=c1nc(N2CCOCc3c(C#CC4(C(F)(F)F)CC4)cccc32)c2c(F)ccc(F)c2[nH]1 [Example 144] | 7.66 | 8.27
4 | O=c1nc(N(CC(F)F)c2cc(F)cc(-c3cnc(C4CC4)cn3)c2)c2c(F)c(F)ccc2[nH]1 [Example 39, 4-[3-(5-cyclopropylpyrazin-2-yl)-N-(2,2-difluoroethyl)-5-fluoro-anilino]-5,6-difluoro-1H-quinazolin-2-one] | 7.87 | 9.15
5 | CC1(C#Cc2nccc(N(CC(F)F)c3nc(=O)[nH]c4cccc(F)c34)c2F)CC1 [Example 115, 4-[2,2-difluoroethyl-[3-fluoro-2-[2-(1-methylcyclopropyl)ethynyl]-4-pyridyl]amino]-5-fluoro-1H-quinazolin-2-one] | 8.22 | 8.92
6 | O=c1nc(N2CCCCc3c(Br)cncc32)c2c(F)cccc2[nH]1 [Example 149, 4-(6-bromo-2,3,4,5-tetrahydro-1H-pyrido[3,4-b]azepin-1-yl)-5-fluoroquinazolin-2(1H)-one] | 6.82 | 7.47
7 | O=c1nc(N(CC(F)(F)F)c2cccc(C#CC3(C(F)(F)F)CC3)c2)c2ccc(Cl)cc2[nH]1 [Example 24, 7-chloro-4-[N-(2,2,2-trifluoroethyl)-3-[2-[1-(trifluoromethyl)cyclopropyl]ethynyl]anilino]-1H-quinazolin-2-one] | 6.76 | 8.62
8 | O=c1nc(N(CC(F)F)c2cccc(C#CC3(C(F)F)CC3)c2F)c2c(F)cccc2[nH]1 [Example 62, 4-[N-(2,2-difluoroethyl)-3-[2-[1-(difluoromethyl)cyclopropyl]ethynyl]-2-fluoro-anilino]-5-fluoro-1H-quinazolin-2-one] | 7.55 | 8.95
9 | Cn1c(=O)nc(N(CC(F)F)c2cc(F)cc(C#CC3(C(F)(F)F)CC3)c2)c2ccc(Cl)cc21 [Example 28, 7-chloro-4-[N-(2,2-difluoroethyl)-3-fluoro-5-[2-[1-(trifluoromethyl)cyclopropyl]ethynyl]anilino]-1-methyl-quinazolin-2-one] | 6.77 | 8.94
10 | O=c1nc(N2CCCCc3c(C#CC4(C(F)(F)F)CC4)cncc32)c2c(F)c(F)ccc2[nH]1 [Example 151, 5,6-difluoro-4-(6-((1-(trifluoromethyl)cyclopropyl)ethynyl)-2,3,4,5-tetrahydro-1H-pyrido[3,4-b]azepin-1-yl)quinazolin-2(1H)-one] | 7.75 | 9.02
11 | [2H]C([2H])([2H])n1c(=O)nc(N2CCOCc3c(C#CC(C)(C)NC(=O)C4(C(F)(F)F)CC4)cccc32)c2c(F)cccc21 [Example 176, N-(4-(1-(5-fluoro-1-(methyl-d3)-2-oxo-1,2-dihydroquinazolin-4-yl)-1,2,3,5-tetrahydrobenzo[e][1,4]oxazepin-6-yl)-2-methylbut-3-yn-2-yl)-1-(trifluoromethyl)cyclopropane-1-carboxamide] | 8.62 | 8.27
12 | O=c1nc(N2CCOCc3c(C#CC4(C(F)(F)F)CC4)cccc32)c2c(F)cccc2[nH]1 [Example 90] | – | 9.35
13 | [2H]C([2H])([2H])n1c(=O)nc(N2CCOCc3c(C#CC4(C(F)(F)F)CC4)cccc32)c2c(F)c(F)ccc21 [Example 96] | – | 9.25
14 | O=c1nc(N2CCCCc3c(C#CC4(C(F)(F)F)CC4)cncc32)c2c(F)cccc2[nH]1 [Example 153] | – | 8.79
15 | O=c1nc(N(CC(F)F)c2ccnc(C#CC3(C(F)(F)F)CC3)c2)c2c(F)c(F)ccc2[nH]1 [Example 78] | – | 8.59
16 | CC1(C#Cc2cccc3c2COCCN3c2nc(=O)[nH]c3cccc(F)c23)CC1 [Example 154] | – | 9.11
